Data: patent US12233056B2, “Lysyl oxidase inhibitors for treating myeloid malignancies” (Syntara Limited, priority 2022, dated 2025)

Legend:
[1] = test system: in vitro co-cultured, patient derived, MSC/HSC cells; assay: Erythroid differentiation in in vitro co-cultured, patient derived MSC/HSC cells; type: cell-based, human; details: 2 μM PXS-5505, 100 nM 5-AZA daily; flow cytometry after 14 days; n=3; FIG. 1
Excerpt: Healthy CD34+ cells were isolated from hip replacement surgery bone specimen (old CD34+ cells) or collected by iliac crest puncture of healthy volunteers (young CD34+ cells). Approval for collection of patient samples was given by the Institutional Review Board of the Medical Faculty Mannheim, University of Heidelberg, Germany, in accordance with the declaration of Helsinki. All patients were informed and provided written consent for sample collection. Mononuclear cells (MNC) were isolated from bone marrow by Ficoll density gradient. CD34+ cells from MNC were isolated using MACS enrichment columns (Miltenyi Biotec, Bergisch Gladbach, Germany) according to the manufacturer's instructions as described. Purity of the CD34+ populations were confirmed by FACS analysis to be >95%. These were then viably frozen and thawed immediately before xenotransplantation.
Mesenchymal stromal cells (MSC) were isolated from residual diagnostic material and selected via their plastic adherence properties in culture. MSC were expanded in NH-Expansion medium (Miltenyi Biotec) and cultured to a maximum of 4 passages. Ex-vivo expanded MSCs were FACS analyzed to confirm adherence to the minimal criteria for defining multipotent mesenchymal stromal cells as described in [Medyouf, 2014]. […]

[2] = test system: erythroid differentiation (the CD235a+ and CD45− population) in the bone marrow collected from xenotransplanted mice; assay: Xenotransplantation model: erythroid differentiation from bone marrow of xenotransplanted mice; type: in vivo; details: 5-AZA 75 mg/m2 5+2 schedule, 3 cycles; PXS-5505 30 mg/kg every 48 h; 3 months; FIG. 2
Protocol: Female immunocompromised mice (NSG and NSGS, Jackson Laboratory) aged 6-8 week old were sub-lethally irradiated (200 cGy) before intrafemoral injections with a mix of CD34+ and MSCs cells (1×10^5:5×10^5) from primary myelofibrosis patients (with grade 3 fibrosis) as described previously [Medyouf, 2014]. The mice were treated with 5-AZA (75 mg/m^2 5+2 schedule, 3 cycles in total) and/or PXS-5505 (30 mg/kg every 48 h for the duration of 5-AZA treatment) for 3 months. At endpoint human CD45+ cells were FACS-sorted from mouse bone marrow. The CD45+ cells were differentiated in the medium supplemented with 5 U/mL EPO, 100 ng/mL SCF and 5 ng/mL IL-3 for 21 days followed by flow cytometry analysis for CD235a and CD45 markers as described previously.
Furthermore, it presents the rescue erythroid differentiation for a variety of different disease subtypes of myelodysplastic syndrome, chronic myelomonocytic leukemia and acute myeloid leukemia.

NC/C=C(\F)CS(=O)(=O)c1cccc2cccnc12 [PXS-5505]
erythroid differentiation (CD235a+, CD45− cells) [1]: could rescue erythropoiesis
erythroid differentiation (CD235a+ and CD45− population) in bone marrow from xenotransplanted mice [2]: could rescue erythropoiesis
